Experimental data reported in patent US9328083B2, “2-aminated methylene or 2-esterified methylene tanshinone derivatives, and preparation method and application thereof” (HANGZHOU BENSHENG PHARMACEUTICAL CO., LTD., priority 2011, dated 2016).
Values after ≈ are worked out from the molar mass of the structure shown.

Experiments:
[1] = tested on: H9 (acute lymphoblastic leukemia, ALL); assay: MTT growth inhibition of leukemia cells, 72 h; format: cell-based, human; details: Homo sapiens, H9, 72 h; for IC50: read-out: IC50; for IC90: read-out: IC90
From the text: (§1) Leukemia cell lines: leukemia cell lines: K562/adr (drug-resistant, chronic myeloid leukemia, CML), NB4 (acute promyelocytic leukemia, AML), Kasumi-1 (acute myeloid leukemia M2 type, AML-M2), and Jurkat (acute lymphoblastic leukemia, ALL), all of which are donated by Cancer Research Institute of Zhejiang University, China; and H9 (acute lymphoblastic leukemia, ALL), which is purchased from China Center for Type Culture Collection (CCTCC).
(§2) The standard sample of tanshinone I (TA) and the 2-aminated methylene or 2-esterified methylene tanshinone I derivatives of the present invention are sufficiently dissolved with dimethylsulfoxide to produce a stock solution of 10 mg/mL, which is refrigerated at 4° C. and stored in dark, and is diluted with a cell culture medium to the desired concentration prior to experimentation.
(§3) Obtaining 6000 well-growing leukemia cells and inoculating them into wells of a 96-well cell culture plate. The culture medium is the RPMI-1640 cell culture medium containing 10% fetal bovine serum. After adding on the second day the 2-aminated methylene or 2-esterified methylene tanshinone I derivatives of different concentrations and mixing uniformly, placing the plate in a carbon dioxide cell incubator (5% CO2) at 37° C. and incubated for 72 hours. Then the viable cell concentration is determined by MTT method.

[2] = tested on: Kasumi-1 (acute myeloid leukemia M2 type, AML-M2); assay: MTT growth inhibition of leukemia cells, 72 h; format: cell-based, human; details: Homo sapiens, Kasumi-1, 72 h; for IC50: read-out: IC50; for IC90: read-out: IC90
From the text: as §1, §2, §3

[3] = tested on: K562/adr (drug-resistant, chronic myeloid leukemia, CML); assay: MTT growth inhibition of leukemia cells, 72 h; format: cell-based, human; details: Homo sapiens, K562/Adr; for IC50: read-out: IC50; for IC90: read-out: IC90
From the text: as §1, §2, §3

[4] = tested on: NB4 (acute promyelocytic leukemia, AML); assay: MTT growth inhibition of leukemia cells, 72 h; format: cell-based, human; details: Homo sapiens, NB4, 72 h; for IC50: read-out: IC50; for IC90: read-out: IC90
From the text: as §1, §2, §3

[5] = tested on: Jurkat (acute lymphoblastic leukemia, ALL); assay: MTT growth inhibition of leukemia cells, 72 h; format: cell-based, human; details: Homo sapiens, 72 h; for IC50: read-out: IC50; for IC90: read-out: IC90
From the text: as §1, §2, §3

[6] = tested on: PANC-1 (pancreatic cancer); assay: MTT growth inhibition of human solid tumor cells, 72 h; format: cell-based; details: Homo sapiens, PANC-1, 72 h; for IC50: read-out: IC50; for IC90: read-out: IC90
Procedure: (§4) Hep-2 (laryngeal carcinoma), A549 (human lung cancer), CaES-17 (esophageal cancer cell), PC-3 (prostate cancer), CNE (nasopharyngeal carcinoma cell), and SK-OV-3 (ovarian cancer cell), all of which are purchased from China Center For Type Culture Collection; RKO (human colon adenocarcinoma cell), MGC 803 (human gastric cancer cell), MG63 (osteosarcoma) and U87 MG (malignant glioma cell), all of which are purchased from Fuxiang Bio-tech Co. Ltd., Shanghai, China; PANC-1 (pancreatic cancer), Hep G2 (human liver cancer cell), Becap37 (human breast cancer cell) and Hela (human cervical cancer cell), all of which are donated by Cancer Research Institute of Zhejiang University, China.
as §2
(§5) Obtaining 4000 well-growing human solid tumor cells and inoculating them into wells of a 96-well cell culture plate. The culture medium is DMEM High Glucose cell culture medium containing 10% fetal bovine serum. The plate is placed in a carbon dioxide cell incubator (5% CO2) at 37° C. and incubated for 24 hours. After adding the 2-aminated methylene or 2-esterified methylene tanshinone I derivatives of different concentrations and mixing uniformly, the plate is placed in a carbon dioxide cell incubator (5% CO2) at 37° C. and incubated for 72 hours. Then the viable cell concentration is determined by the MTT method.

PC-3 (prostate cancer) = assay: as above; format: cell-based; details: Homo sapiens, PC-3, 72 h; for IC50: read-out: IC50; for IC90: read-out: IC90
Procedure: as §4, §2, §5

[7] = tested on: U87 MG (malignant glioma cell); assay: as above; format: cell-based; details: Homo sapiens, U-87 MG, U87-MG, 72 h; for IC50: read-out: IC50; for IC90: read-out: IC90
Procedure: as §4, §2, §5

[8] = tested on: Hela (human cervical cancer cell); assay: as above; format: cell-based; details: Homo sapiens, HeLa, 72 h; for IC50: read-out: IC50; for IC90: read-out: IC90
Procedure: as §4, §2, §5

[9] = tested on: Hep-2 (laryngeal carcinoma); assay: as above; format: cell-based; details: Homo sapiens, HEp-2, 72 h; for IC50: read-out: IC50; for IC90: read-out: IC90
Procedure: as §4, §2, §5

[10] = tested on: SK-OV-3 (ovarian cancer cell); assay: as above; format: cell-based; details: Homo sapiens, SK-OV-3, 72 h; for IC50: read-out: IC50; for IC90: read-out: IC90
Procedure: as §4, §2, §5

[11] = tested on: CNE (nasopharyngeal carcinoma cell); assay: as above; format: cell-based; details: Homo sapiens; for IC50: read-out: IC50; for IC90: read-out: IC90
Procedure: as §4, §2, §5

[12] = tested on: MGC 803 (human gastric cancer cell); assay: as above; format: cell-based; details: Homo sapiens, MGC-803, 72 h; for IC50: read-out: IC50; for IC90: read-out: IC90
Procedure: as §4, §2, §5

A549 (human lung cancer) = assay: as above; format: cell-based; details: Homo sapiens, A549, 72 h; for IC50: read-out: IC50; for IC90: read-out: IC90
Procedure: as §4, §2, §5

[13] = tested on: CaES-17 (esophageal cancer cell); assay: as above; format: cell-based; details: Homo sapiens, CaEs17, CaEs-17, 72 h; for IC50: read-out: IC50; for IC90: read-out: IC90
Procedure: as §4, §2, §5

[14] = tested on: Hep G2 (human liver cancer cell); assay: as above; format: cell-based; details: Homo sapiens, HepG2, Hep G2, 72 h; for IC50: read-out: IC50; for IC90: read-out: IC90
Procedure: as §4, §2, §5

MG63 (osteosarcoma) = assay: as above; format: cell-based; details: Homo sapiens, MG-63, 72 h; for IC50: read-out: IC50; for IC90: read-out: IC90
Procedure: as §4, §2, §5

[15] = tested on: Becap37 (human breast cancer cell); assay: as above; format: cell-based; details: Homo sapiens, Becap-37, 72 h; for IC50: read-out: IC50; for IC90: read-out: IC90
Procedure: as §4, §2, §5

[16] = tested on: RKO (human colon adenocarcinoma cell); assay: as above; format: cell-based; details: Homo sapiens; for IC50: read-out: IC50; for IC90: read-out: IC90
Procedure: as §4, §2, §5

[17] = tested on: RPMI8226 (multiple myeloma); assay: MTT growth inhibition of multiple myeloma cells, 72 h; format: cell-based, human; details: Homo sapiens, RPMI 8226, 72 h; for IC50: read-out: IC50; for IC90: read-out: IC90
Procedure: Myeloma cell lines: RPMI8226 (multiple myeloma), purchased from Fuxiang Bio-tech Co. Ltd., Shanghai, China.
as §2
as §3, with “myeloma” for “leukemia”, “cells as above” for “cells”, “1640” for “RPMI-1640”, “adding” for “adding on the second day”

Row | Compound | IC50 [1] [µg/mL] | IC90 [1] [µg/mL] | IC50 [2] [µg/mL] | IC90 [2] [µg/mL] | IC50 [3] [µg/mL] | IC90 [3] [µg/mL] | IC50 [4] [µg/mL] | IC90 [4] [µg/mL] | IC50 [5] [µg/mL] | IC90 [5] [µg/mL] | IC50 [6] [µg/mL] | IC90 [6] [µg/mL] | IC50 (PC-3 (prostate cancer)) [µg/mL] | IC90 (PC-3 (prostate cancer)) [µg/mL] | IC50 [7] [µg/mL] | IC90 [7] [µg/mL] | IC50 [8] [µg/mL] | IC90 [8] [µg/mL] | IC50 [9] [µg/mL] | IC90 [9] [µg/mL] | further results
1 | Cc1c(CNCCC(C)(C)C)oc2c1C(=O)C(=O)c1c-2ccc2c(C)cccc12 [BS-TA-B14] | 2 (≈ 5.13 µM) | 11.9 (≈ 30.6 µM) | 0.6 (≈ 1.54 µM) | 1.99 (≈ 5.11 µM) | 0.77 (≈ 1.98 µM) | 1.82 (≈ 4.67 µM) | 3.59 (≈ 9.22 µM) | 13.7 (≈ 35.2 µM) | 6.66 (≈ 17.1 µM) | > 16 | 1.88 (≈ 4.83 µM) | 6.19 (≈ 15.9 µM) | 14.7 (≈ 37.6 µM) | > 16 | 3.85 (≈ 9.88 µM) | > 16 | 5.28 (≈ 13.6 µM) | 84.2 (≈ 216 µM) | 14.3 (≈ 36.7 µM) | 35.2 (≈ 90.5 µM) | IC50 [10]: > 16 µg/mL; IC90 [10]: > 16 µg/mL; IC50 [11]: > 16 µg/mL; IC90 [11]: > 16 µg/mL; IC50 [12]: 14.4 µg/mL (≈ 37 µM); IC90 [12]: > 16 µg/mL; IC50 (A549 (human lung cancer)): 1.75 µg/mL (≈ 4.49 µM); IC90 (A549 (human lung cancer)): 9 µg/mL (≈ 23.1 µM); IC50 [13]: > 16 µg/mL; IC90 [13]: > 16 µg/mL; IC50 [14]: 16 µg/mL (≈ 41.1 µM); IC90 [14]: > 16 µg/mL; IC50 (MG63 (osteosarcoma)): 4.86 µg/mL (≈ 12.5 µM); IC90 (MG63 (osteosarcoma)): > 16 µg/mL; IC50 [15]: 4.6 µg/mL (≈ 11.8 µM); IC90 [15]: > 16 µg/mL; IC50 [16]: 3.36 µg/mL (≈ 8.63 µM); IC90 [16]: > 16 µg/mL; IC50 [17]: 8 µg/mL (≈ 20.5 µM); IC90 [17]: > 16 µg/mL
2 | Cc1c(CNCC2CC2)oc2c1C(=O)C(=O)c1c-2ccc2c(C)cccc12 [BS-TA-B07] | 2.9 (≈ 8.07 µM) | 7.5 (≈ 20.9 µM) | 1.07 (≈ 2.98 µM) | 3.86 (≈ 10.7 µM) | 3.22 (≈ 8.96 µM) | 6.38 (≈ 17.8 µM) | 1.35 (≈ 3.76 µM) | 3.74 (≈ 10.4 µM) | 3.11 (≈ 8.65 µM) | 9.52 (≈ 26.5 µM) | 1.33 (≈ 3.7 µM) | 8.21 (≈ 22.8 µM) | 7.05 (≈ 19.6 µM) | 16 (≈ 44.5 µM) | 10.1 (≈ 28 µM) | 21.2 (≈ 59 µM) | 6.86 (≈ 19.1 µM) | 18.5 (≈ 51.4 µM) | 9.45 (≈ 26.3 µM) | > 16 | IC50 [10]: > 16 µg/mL; IC90 [10]: > 16 µg/mL; IC50 [11]: 9 µg/mL (≈ 25 µM); IC90 [11]: > 16 µg/mL; IC50 [12]: 6.9 µg/mL (≈ 19.2 µM); IC90 [12]: 17.1 µg/mL (≈ 47.7 µM); IC50 (A549 (human lung cancer)): 5.98 µg/mL (≈ 16.6 µM); IC90 (A549 (human lung cancer)): 21.9 µg/mL (≈ 61.1 µM); IC50 [13]: 9.16 µg/mL (≈ 25.5 µM); IC90 [13]: 19.7 µg/mL (≈ 54.8 µM); IC50 [14]: 8.46 µg/mL (≈ 23.5 µM); IC90 [14]: > 16 µg/mL; IC50 (MG63 (osteosarcoma)): 8.14 µg/mL (≈ 22.6 µM); IC90 (MG63 (osteosarcoma)): > 16 µg/mL; IC50 [15]: 5.23 µg/mL (≈ 14.6 µM); IC90 [15]: 14.3 µg/mL (≈ 39.9 µM); IC50 [16]: 0.93 µg/mL (≈ 2.59 µM); IC90 [16]: 17 µg/mL (≈ 47.4 µM); IC50 [17]: 3.46 µg/mL (≈ 9.63 µM); IC90 [17]: 10.2 µg/mL (≈ 28.3 µM)
